Test results from patent US20080287445A1, “Prokineticin 2 receptor antagonists” (priority 2005, published 2008).
Values joined by “and” are separate entries in the source; they are usually repeats but may differ in a detail not shown here. Equal values may be shown once.

Target: T1, GPR73 (prokineticin 1 receptor) (Homo sapiens, UniProt Q8TCW9)
T1 construct: expressed in transfected cells; host or cells: HEK 293
Assay: PK1 functional assay: Ca2+ mobilization screening for PK1 antagonists on the FLIPR
Assay type: cell-based
Conditions: HEK 293 GPR73 cells, multiple values = multiple testing; for inhibition at 10 µM: HEK293, 10 μM compound, read-out: Ca^2+ Mobilization % Inh @ 10 μM; for IC50: PK1 ligand preparation at its EC50, read-out: Ca^2+ Mobilization IC50; for Ca^2+ Mobilization % Inh @ 10 μM: 10 μM compound
How it was run: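 HEK293 cells expressing human GPR73 were loaded with Calcium Plus dye, then on FLIPR given compound for 4 min 15 s before PK1 ligand at its predetermined EC50. Baseline-subtracted fluorescence over 1 min 45 s gave percent inhibition versus maximal signal; IC50 fitted.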

T1 sequence (Q8TCW9 whole entry, species assumed): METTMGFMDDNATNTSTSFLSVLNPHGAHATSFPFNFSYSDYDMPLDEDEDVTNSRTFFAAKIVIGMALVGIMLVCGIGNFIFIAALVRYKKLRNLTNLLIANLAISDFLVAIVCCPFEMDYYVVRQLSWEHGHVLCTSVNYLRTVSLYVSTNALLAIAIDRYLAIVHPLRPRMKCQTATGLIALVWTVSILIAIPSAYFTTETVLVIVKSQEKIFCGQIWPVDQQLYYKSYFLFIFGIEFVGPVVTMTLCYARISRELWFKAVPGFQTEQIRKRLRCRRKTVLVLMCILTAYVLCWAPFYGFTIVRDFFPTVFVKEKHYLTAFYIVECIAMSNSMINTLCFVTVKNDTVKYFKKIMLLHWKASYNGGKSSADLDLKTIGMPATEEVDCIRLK

Structure (SMILES) | inhibition at 10 µM | IC50 | Ca^2+ Mobilization % Inh @ 10 μM
COCCCCCn1c(NCc2c(C)cc(C)nc2N)nc(=O)n(Cc2ccc(OC)cc2)c1=O [Cpd 224, 6-[(2-Amino-4,6-dimethyl-pyridin-3-ylmethyl)-amino]-3-(4-methoxy-benzyl)-1-(5-methoxy-pentyl)-1H-[1,3,5]triazine-2,4-dione] | 97% | 7 nM and 11 nM | 
COc1ccc(Cn2c(OC(C)c3ccnc(N)c3)cc(=O)n(Cc3ccc(OC)cc3)c2=O)cc1 (stereo not drawn) [Cpd 225] | 68% | 3780 nM | 
Cc1cc(C)[n+]([O-])c(N)c1CNc1nc(=O)n(Cc2ccc3c(c2)CCO3)c(=O)n1Cc1ccc2c(c1)CCO2 [Cpd 226, 6-[(2-Amino-4,6-dimethyl-1-oxy-pyridin-3-ylmethyl)-amino]-1,3-bis-(2,3-dihydro-benzofuran-5-ylmethyl)-1H-[1,3,5]triazine-2,4-dione] | 85% | 922 nM | 
Cc1cc(C)c(CNc2nc(=O)n(Cc3ccc4[nH]ccc4c3)c(=O)n2Cc2ccc(OC(F)F)cc2)cn1 [Cpd 227] | 44% | > 10000 nM | 
Nc1ncccc1CNc1nc(=O)n(Cc2ccc3[nH]ccc3c2)c(=O)n1Cc1ccc(OC(F)F)cc1 [Cpd 228] | 63% | 3400 nM | 
COc1ccc(Cn2c(NCc3cnc(C)cc3C)nc(=O)n(Cc3ccc4[nH]ccc4c3)c2=O)cc1 [Cpd 229] | 41% | > 10000 nM | 
COc1ccc(Cn2c(NCc3cccnc3N)nc(=O)n(Cc3ccc4[nH]ccc4c3)c2=O)cc1 [Cpd 230] | 66% | 2750 nM | 
COc1ccc(Cn2c(NCc3cccnc3N)nc(=O)n(Cc3ccc(Cl)cc3)c2=O)cc1 [Cpd 231] | 89% | 245 nM | 
COc1ccc(Cn2c(OCc3ccnc(N)n3)cc(=O)n(Cc3ccc(OC)cc3)c2=O)cc1 [Cpd 232] | 33% | > 10000 nM | 
Cc1cc(C)[n+]([O-])c(N)c1CNc1nc(=O)n(Cc2ccc3c(c2)CCO3)c(=O)n1Cc1ccc(OC(F)F)cc1 [Cpd 233, 6-[(2-Amino-4,6-dimethyl-1-oxy-pyridin-3-ylmethyl)-amino]-1-(4-difluoromethoxy-benzyl)-3-(2,3-dihydro-benzofuran-5-ylmethyl)-1H-[1,3,5]triazine-2,4-dione] | 96% | 69 nM and 130 nM | 97%
COc1ccc(Cn2c(NC(C)c3ccccn3)nc(=O)n(Cc3ccc(OC)cc3)c2=O)cc1 (stereo not drawn) [Cpd 234] | 66% | 2590 nM | 
COc1ccc(Cn2c(NCc3ccc(C(F)(F)F)cn3)nc(=O)n(Cc3ccc(OC)cc3)c2=O)cc1 [Cpd 235] | 98% | 85 nM | 
COc1ccc(Cn2c(NCc3ncccc3C(F)(F)F)nc(=O)n(Cc3ccc(OC)cc3)c2=O)cc1 [Cpd 236] | 64% | 1270 nM | 
COc1ccc(Cn2c(NCc3cc(C(F)(F)F)ccn3)nc(=O)n(Cc3ccc(OC)cc3)c2=O)cc1 [Cpd 237] | 69% | 1680 nM | 
Nc1ncccc1CNc1nc(=O)n(Cc2ccc3snnc3c2)c(=O)n1Cc1ccc2c(c1)CCO2 [Cpd 242] | 95% | 251 nM | 
Cc1cc(C)c(CNc2nc(=O)n(Cc3ccc4snnc4c3)c(=O)n2Cc2ccc3c(c2)CCO3)cn1 [Cpd 243] | 75% | 914 nM | 
Cn1nnc2cc(Cn3c(=O)nc(NCc4cccnc4N)n(Cc4ccc5c(c4)CCO5)c3=O)ccc21 [Cpd 244] | 94% | 121 nM | 
Cc1cc(C)c(CNc2nc(=O)n(Cc3ccc4c(c3)nnn4C)c(=O)n2Cc2ccc3c(c2)CCO3)cn1 [Cpd 245] | 45% | > 10000 nM | 
COc1ccc(Cn2c(NCc3c(N)nc4c(c3-c3ccccc3)CCC4)nc(=O)n(Cc3ccc(OC)cc3)c2=O)cc1 [Cpd 246] | 48% | 8320 nM | 
COc1ccc(Cn2c(NCc3cnc(C)cn3)nc(=O)n(Cc3ccc(OC)cc3)c2=O)cc1 [Cpd 247] | 100% | 27 nM and 30 nM | 97%
